# Results as given in patent US8034822B2, “Glucokinase activators” (Takeda San Diego, Inc., priority 2006, dated 2011).
# Target: T1, glucokinase (GK) (Homo sapiens, UniProt P35557)
# T1 construct: I.D. No. 1 corresponds to residues 12-465 of glucokinase; made in house; host or cells: E. coli DH10b-T1r, pFLAG-CTC plasmid
# T1 sequence (P35557 with tags, fused parts or gaps isoform P35557-2): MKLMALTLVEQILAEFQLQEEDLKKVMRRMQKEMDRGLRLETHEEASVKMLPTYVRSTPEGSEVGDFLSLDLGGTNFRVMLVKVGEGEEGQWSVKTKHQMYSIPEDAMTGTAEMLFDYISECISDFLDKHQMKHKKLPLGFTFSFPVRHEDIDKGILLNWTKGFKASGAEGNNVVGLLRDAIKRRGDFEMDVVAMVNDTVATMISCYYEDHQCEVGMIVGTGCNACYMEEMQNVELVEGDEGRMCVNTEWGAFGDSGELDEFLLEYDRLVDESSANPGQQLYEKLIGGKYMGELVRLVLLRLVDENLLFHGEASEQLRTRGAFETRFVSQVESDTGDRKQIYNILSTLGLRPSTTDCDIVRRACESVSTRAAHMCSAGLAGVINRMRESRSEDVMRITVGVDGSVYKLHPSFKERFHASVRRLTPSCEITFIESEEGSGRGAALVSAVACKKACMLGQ
# Experiment: enzymatic glucokinase activity assay (ATP consumption, KinaseGlo luminescence)
# Format: biochemical
# Conditions: Against GK; Kact = concentration giving 50% of maximal increase in GK activity; 5 μM ATP, 5 mM Glucose, 60 min room temperature; values given as bins; read-out: pKact
# Excerpt: The activity of compounds as glucokinase activators may be assayed in vitro, in vivo or in a cell line. Provided below is an enzymatic glucokinase activity assay.
# Purified glucokinase may be obtained as follows. DNA encoding residues 12-465 of the full-length sequence of the human enzyme may be amplified by PCR and cloned into the HindIII and EcoRI sites of pFLAG-CTC (Sigma). SEQ. I.D. No. 1 corresponds to residues 12-465 of glucokinase.
# The expression of recombinant glucokinase protein may be carried out by transformation and growth of DH10b-T1r E. coli cells incorporating the (pFLAG-CTC) plasmid in LB media. Protein expression can be induced in this system by the addition of IPTG to the culture medium.
# Recombinant protein may be isolated from cellular extracts by passage over Sepharose Q Fast Flow resin (Pharmacia). This partially purified GK extract may then be further purified by a second passage over Poros HQ10 (Applied Biosystems). The purity of GK may be determined on denaturing SDS-PAGE gel. Purified GK may then be concentrated to a final concentration of 20.0 mg/ml. After flash freezing in liquid nitrogen, the proteins can be stored at −78° C. in a buffer containing 25 mM TRIS-HCl pH 7.6, 50 mM NaCl, and 0.5 mM TCEP.
# The activation properties of compounds for GK may be determined using a black 384-well-plate format under the following reaction conditions: 25 mM Hepes pH 7.2, 25 mM NaCl, 10 mM MgCl2, 0.01% Brij35, 1 mM DTT, 5 μM ATP, 5 mM Glucose 2% DMSO. The amount of ATP consumed may be determined quantitatively by addition of equal volume of luciferase reagent (luciferase+beetle luciferin—KinaseGlo Luminescent Kinase Assay kit from Promega). The luminescence intensity may be measured by using the Analyst HT from LJL Biosystems.
# The assay reaction may be initiated as follows: 4 μl of substrate mixture (12.5 μM ATP and 12.5 mM Glucose) was added to each well of the plate, followed by the addition of 2 μl of activator (2 fold serial dilutions for 11 data points for each activator) containing 10% DMSO. 4 μL of 1.25 nM GK solution may be added to initiate the reaction. The reaction mixture may then be incubated at room temperature for 60 min, and quenched and developed by addition of 10 μL of luciferase reagent. Luminescence intensities of the resulting reaction mixtures may be measured after a 10 min incubation at room temperature. The luminescence intensity may be measured by using the Analyst HT from LJL Biosystems.
# pKact and % ACTmax values may be calculated by non-linear curve fitting of the compound concentrations and luminescence intensities to a standard inhibition/activation equation.
row,SMILES,EC50
1,"COC(=O)c1ccc(NC(=O)C(CC2CCCCC2)n2cnc3cc(F)ccc3c2=O)nc1 (stereo not shown) [Compound 205, methyl 6-(3-cyclohexyl-2-(7-fluoro-4-oxoquinazolin-3(4H)-yl)propanamido)nicotinate]",1000 to 1580 nM
2,"COC(=O)c1ccc(NC(=O)C(CC2CCCCC2)n2cnc3ccc(F)cc3c2=O)nc1 (stereo not shown) [Compound 193, methyl 6-(3-cyclohexyl-2-(6-fluoro-4-oxoquinazolin-3(4H)-yl)propanamido)nicotinate]",≥ 2000 nM
3,"O=C(NC1CC1)c1ccc2c(=O)n(C(CC3CCOCC3)C(=O)Nc3ncc(Cl)s3)c(=O)[nH]c2c1 (stereo not shown) [Compound 181, 3-(1-(5-chlorothiazol-2-ylamino)-1-oxo-3-(tetrahydro-2H-pyran-4-yl)propan-2-yl)-N-cyclopropyl-2,4-dioxo-1,2,3,4-tetrahydroquinazoline-7-carboxamide]",≥ 2000 nM
4,"COc1ccc2ncn(C(CC3CCCCC3)C(=O)Nc3nccs3)c(=O)c2c1 (stereo not shown) [Compound 131, 3-cyclohexyl-2-(6-methoxy-4-oxoquinazolin-3(4H)-yl)-N-(thiazol-2-yl)propanamide]",≥ 2000 nM
5,"O=C(Nc1ncc(Cl)s1)C(CC1CCCCC1)n1cnc2ccc(F)cc2c1=O (stereo not shown) [Compound 50, N-(5-Chloro-thiazol-2-yl)-3-cyclohexyl-2-(6-fluoro-4-oxo-4H-quinazolin-3-yl)-propionamide]",≥ 2000 nM
6,"O=C(Nc1ccc(F)cn1)C(CC1CCCCC1)n1cnc2cc(S(=O)(=O)C3CC3)ccc2c1=O (stereo not shown) [Compound 74, 3-Cyclohexyl-2-(7-cyclopropanesulfonyl-4-oxo-4H-quinazolin-3-yl)-N-(5-fluoro-pyridin-2-yl)-propionamide]",1000 to 1580 nM
7,"O=C(Nc1ccc(Cl)cn1)C(CC1CCCCC1)n1cnc2ccc(F)cc2c1=O (stereo not shown) [Compound 160, N-(5-chloropyridin-2-yl)-3-cyclohexyl-2-(6-fluoro-4-oxoquinazolin-3(4H)-yl)propanamide]",1000 to 1580 nM
8,"COC(=O)c1ccc(NC(=O)C(CC2CCCCC2)n2cnc3c(C(F)(F)F)cccc3c2=O)nc1 (stereo not shown) [Compound 209, methyl 6-(3-cyclohexyl-2-(4-oxo-8-(trifluoromethyl)quinazolin-3(4H)-yl)propanamido)nicotinate]",1000 to 1580 nM
9,"O=C(Nc1ccccn1)C(CC1CCCCC1)n1cnc2ccc(F)cc2c1=O (stereo not shown) [Compound 36, 3-cyclohexyl-2-(6-fluoro-4-oxoquinazolin-3(4H)-yl)-N-(pyridin-2-yl)propanamide]",≥ 2000 nM
10,"CCS(=O)(=O)c1ccc2c(=O)n(C(CC3CCCCC3)C(=O)Nc3ccc(Cl)cn3)cnc2c1 (stereo not shown) [Compound 72, N-(5-Chloro-pyridin-2-yl)-3-cyclohexyl-2-(7-ethanesulfonyl-4-oxo-4H-quinazolin-3-yl)-propionamide]",501 to 794 nM
11,"CN1CCC(CNC(=O)c2ccc3c(=O)n(C(CC4CCCCC4)C(=O)Nc4ncc(Cl)s4)cnc3c2)CC1 (stereo not shown) [Compound 178, 3-(1-(5-chlorothiazol-2-ylamino)-3-cyclohexyl-1-oxopropan-2-yl)-N-((1-methylpiperidin-4-yl)methyl)-4-oxo-3,4-dihydroquinazoline-7-carboxamide]",1000 to 1580 nM
12,"O=C(Nc1nccs1)C(CC1CCCCC1)n1cnc2c(Cl)cccc2c1=O (stereo not shown) [Compound 139, 2-(8-chloro-4-oxoquinazolin-3(4H)-yl)-3-cyclohexyl-N-(thiazol-2-yl)propanamide]",≥ 2000 nM
13,"CN(C)CCNC(=O)c1ccc2c(=O)n(C(CC3CCCCC3)C(=O)Nc3ncc(Cl)s3)c(=O)[nH]c2c1 (stereo not shown) [Compound 177, 3-(1-(5-chlorothiazol-2-ylamino)-3-cyclohexyl-1-oxopropan-2-yl)-N-(2-(dimethylamino)ethyl)-2,4-dioxo-1,2,3,4-tetrahydroquinazoline-7-carboxamide]",501 to 794 nM
14,"COc1ccc2ncn(C(CC3CCCCC3)C(=O)Nc3ccc(C(N)=O)cn3)c(=O)c2c1 (stereo not shown) [Compound 167, 6-(3-cyclohexyl-2-(6-methoxy-4-oxoquinazolin-3(4H)-yl)propanamido)nicotinamide]",501 to 794 nM
15,"O=C(Nc1ccc(F)cn1)C(CC1CCCCC1)n1cnc2ccc(F)cc2c1=O (stereo not shown) [Compound 159, 3-cyclohexyl-2-(6-fluoro-4-oxoquinazolin-3(4H)-yl)-N-(5-fluoropyridin-2-yl)propanamide]",≥ 2000 nM

# Continued, values first:
row,EC50,SMILES
1,501 to 794 nM,"O=C(Nc1ccc(Cl)cn1)C(CC1CCCCC1)n1cnc2cc(S(=O)(=O)C3CC3)ccc2c1=O (stereo not shown) [Compound 75, N-(5-Chloro-pyridin-2-yl)-3-cyclohexyl-2-(7-cyclopropanesulfonyl-4-oxo-4H-quinazolin-3-yl)-propionamide]"
2,≤ 398 nM,"COC(=O)c1ccc(NC(=O)C(CC2CCCCC2)n2cnc3cc(S(=O)(=O)C4CCCC4)ccc3c2=O)nc1 (stereo not shown) [Compound 83, 6-[3-Cyclohexyl-2-(7-cyclopentanesulfonyl-4-oxo-4H-quinazolin-3-yl)-propionylamino]-nicotinic acid methyl ester]"
3,501 to 794 nM,"CS(=O)(=O)c1cc(Cl)c2ncn(C(CC3CCCCC3)C(=O)Nc3ccc(C(N)=O)cn3)c(=O)c2c1 (stereo not shown) [Compound 92, 6-[2-(8-Chloro-6-methanesulfonyl-4-oxo-4H-quinazolin-3-yl)-3-cyclohexyl-propionylamino]-nicotinamide]"
4,≤ 398 nM,"CNC(=O)c1ccc2c(=O)n(C(CC3CCCCC3)C(=O)Nc3ncc(Cl)s3)cnc2c1 (stereo not shown) [Compound 175, 3-(1-(5-chlorothiazol-2-ylamino)-3-cyclohexyl-1-oxopropan-2-yl)-N-methyl-4-oxo-3,4-dihydroquinazoline-7-carboxamide]"
5,501 to 794 nM,"CS(=O)(=O)c1ccc2c(=O)n(C(CC3CCCCC3)C(=O)Nc3ncc(Cl)s3)c(=O)[nH]c2c1 (stereo not shown) [Compound 55, N-(5-Chloro-thiazol-2-yl)-3-cyclohexyl-2-(7-methanesulfonyl-2,4-dioxo-1,4-dihydro-2H-quinazolin-3-yl)-propionamide]"
6,501 to 794 nM,"COC(=O)c1ccc(NC(=O)C(CC2CCCCC2)n2cnc3cc(S(=O)(=O)CC4CC4)ccc3c2=O)nc1 (stereo not shown) [Compound 90, 6-[3-Cyclohexyl-2-(7-cyclopropylmethanesulfonyl-4-oxo-4H-quinazolin-3-yl)-propionylamino]-nicotinic acid methyl ester]"
7,501 to 794 nM,"COc1ccc2ncn(C(CC3CCCCC3)C(=O)Nc3ccc(Cl)cn3)c(=O)c2c1 (stereo not shown) [Compound 168, N-(5-chloropyridin-2-yl)-3-cyclohexyl-2-(6-methoxy-4-oxoquinazolin-3(4H)-yl)propanamide]"
8,≤ 398 nM,"CCS(=O)(=O)c1ccc2c(=O)n(C(CC3CCCCC3)C(=O)Nc3ccc(C(N)=O)cn3)cnc2c1 (stereo not shown) [Compound 81, 6-[3-Cyclohexyl-2-(7-ethanesulfonyl-4-oxo-4H-quinazolin-3-yl)-propionylamino]-nicotinamide]"
9,501 to 794 nM,"O=C(Nc1nc2ccccc2s1)C(CC1CCCCC1)n1cnc2ccc(F)cc2c1=O (stereo not shown) [Compound 35, N-(benzo[d]thiazol-2-yl)-3-cyclohexyl-2-(6-fluoro-4-oxoquinazolin-3(4H)-yl)propanamide]"
10,501 to 794 nM,"O=C(NC1CCCC1)c1ccc2c(=O)n(C(CC3CCCCC3)C(=O)Nc3ncc(Cl)s3)cnc2c1 (stereo not shown) [Compound 173, 3-(1-(5-chlorothiazol-2-ylamino)-3-cyclohexyl-1-oxopropan-2-yl)-N-cyclopentyl-4-oxo-3,4-dihydroquinazoline-7-carboxamide]"
